Patent US10201624B2, “Triazine based radiopharmaceuticals and radioimaging agents” (Molecular Insight Pharmaceuticals, Inc., priority 2013, dated 2019)
One block for each compound: values may come before it.

Experiments:
PSMA = molecular target: T1, PSMA (Homo sapiens, UniProt Q04609); test: ^68Ga-PSMA PET/CT imaging of a subject having prostate cancer; assay type: in vivo
T1 construct: from tissue; host or cells: in vivo: prostate tissue, lymph node and bone lesions of a subject having prostate cancer
Description: According to another embodiment of the invention, radiometal complexes of Formula I and Formula II compounds were used for imaging prostate cancer and accompanying metastasis in a subject. Briefly, ^68Ga was complexed to (2S)-2-(3-((1S)-1-carboxy-5-(11-(4-(4-(dimethylamino)-6-((4-((1,4,7,10-tetrakis(carboxymethyl)-1,4,7,10-tetraazacyclododecan-2-yl)methyl)phenyl)amino)-1,3,5-triazin-2-yl)piperazin-1-yl)undecanamido)pentyl)ureido)pentanedioic acid and the resultant complex was administered to a subject having prostate cancer. The subject was then imaged at 1 hour and 3 hours post administration of the inventive ^68Ga complex using, for example, a ^68Ga-PSMA PET/CT scanner. […] Overall, this imaging study supports the use of radiometal complexes of the inventive compounds as suitable agents for radioimaging of cancers, such as prostate cancer.

LNCaP cell xenografts = test: tissue distribution of ^177Lu-labeled compounds in mice bearing LNCaP xenografts; assay type: in vivo; settings: for concentration in kidneys compared with tumor: 4 hours post administration; for concentration in LNCap tumor: 24 hours and 96 hours post administration compared with 4 hours; for clearance from the kidneys: over a period of 96 hours
Description: All animal studies were approved by the Institute for Animal Care and Use Committee in accordance with the guidelines set forth by the U.S. Public Health Service Policy on Humane Care and Use of Laboratory Animals. Mice were housed under standard conditions in approved facilities with 12 hour light/dark cycles and given food and water ad libitum. Male athymic NCr-nu/nu mice were purchased from Taconic. For inoculation in mice, LNCaP cells were resuspended at 10^7 cells/ml in a 1:1 mixture of cell culture medium:Matrigel (BD Biosciences). Each mouse was injected in the right flank with 0.25 ml of the cell suspension. Mice were used for tissue distribution studies when the tumors reached approximately 100-400 mm^3.
A quantitative analysis of the tissue distribution of ^177Lu-labeled compounds was performed in separate groups of male NCr-nu/nu mice bearing LNCaP cell xenografts. The compounds were administered via the tail vein as a bolus injection (approximately 10 μCi/mouse) in a constant volume of 0.05 mL. The animals (n=5/time point) were euthanized by asphyxiation with carbon dioxide at the indicated time points after injection. Tissues, for example, blood, heart, lungs, liver, spleen, kidneys, stomach, large and small intestines (with contents), testes, skeletal muscle, bone, brain, adipose, and tumor were dissected, excised, weighed wet, and counted in an automated γ-counter. Tissue time-radioactivity levels were expressed as percent injected dose per gram of tissue (% ID/g).

LNCaP xenografts = test: in vivo efficacy: inhibition of LNCaP tumor growth; design: species or system mice; settings: 450 μCi per mouse, intravenous
Description: FIG. 5 illustrates the in vivo efficacy of an exemplary lutetium complex of the invention to inhibit the growth of LNCaP tumors in mice. Arrest of tumor growth was determined by administering 450 μCi of the lutetium complex of (2S)-2-(3-((1S)-1-caroxy-5-(11-(4-(4-(dimethylamino)-6-((4-((1,4,7,10-tetrakis(carboxymethyl)-1,4,7,10-tetraazacyclododecan-2-yl)methyl)phenyl)amino)-1,3,5-triazin-2-yl)piperazin-1-yl)undecanamido)pentyl)ureido)pentanedioic acid to each mouse in the study group. Mice in the control group were administered saline. Tumor volumes in the test and control group of mice were measured twice weekly.
All animal studies were approved by the Institute for Animal Care and Use Committee in accordance with the guidelines set forth by the U.S. Public Health Service Policy on Humane Care and Use of Laboratory Animals. Mice were housed under standard conditions in approved facilities with 12 hour light/dark cycles and given food and water ad libitum. Male athymic NCr-nu/nu mice were purchased from Taconic. […]
Mice bearing LNCaP xenografts having an average volume of ˜100-500 mm^3, were randomly assigned to a control group or a treatment group (n=10 mice per group). […] Tumor dimensions were measured twice weekly with digital calipers and tumor volumes were calculated using the formula ([…]Π×width^2×length)/6. […]

[1] = extended study, 3 weeks post administration
[2] = extended study, between 24 hours to 96 hours
[3] = ^177Lu complex, LNCap xenograft mice, tail vein bolus

T1 sequence (Q04609 whole entry): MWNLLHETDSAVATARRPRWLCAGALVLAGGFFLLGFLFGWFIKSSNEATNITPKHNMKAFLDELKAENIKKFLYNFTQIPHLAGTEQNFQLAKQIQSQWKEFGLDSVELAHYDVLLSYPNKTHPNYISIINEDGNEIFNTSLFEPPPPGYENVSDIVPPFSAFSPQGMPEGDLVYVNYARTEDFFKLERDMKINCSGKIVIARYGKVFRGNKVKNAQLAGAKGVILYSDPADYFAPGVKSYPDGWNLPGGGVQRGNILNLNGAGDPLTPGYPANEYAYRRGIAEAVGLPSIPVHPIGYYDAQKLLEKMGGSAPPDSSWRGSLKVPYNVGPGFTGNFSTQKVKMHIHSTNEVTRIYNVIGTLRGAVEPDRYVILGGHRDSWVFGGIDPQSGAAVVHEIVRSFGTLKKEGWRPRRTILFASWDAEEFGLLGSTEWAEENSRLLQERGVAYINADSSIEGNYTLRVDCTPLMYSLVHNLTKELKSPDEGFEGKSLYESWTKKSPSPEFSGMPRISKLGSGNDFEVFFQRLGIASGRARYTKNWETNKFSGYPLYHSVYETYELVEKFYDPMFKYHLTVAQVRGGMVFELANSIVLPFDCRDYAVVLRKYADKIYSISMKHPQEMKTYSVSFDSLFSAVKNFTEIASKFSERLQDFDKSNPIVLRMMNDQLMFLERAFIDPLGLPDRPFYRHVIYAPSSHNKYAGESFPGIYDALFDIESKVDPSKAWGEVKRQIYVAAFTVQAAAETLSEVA

Compound: ^68Ga complex of (2S)-2-(3-((1S)-1-carboxy-5-(11-(4-(4-(dimethylamino)-6-((4-((1,4,7,10-tetrakis(carboxymethyl)-1,4,7,10-tetraazacyclododecan-2-yl)methyl)phenyl)amino)-1,3,5-triazin-2-yl)piperazin-1-yl)undecanamido)pentyl)ureido)pentanedioic acid [Example 17]
- tissue accumulation in radiographic image (PSMA; FIG. 6): accumulates in the lacrimal and salivary glands, kidney, liver, and urinary bladder
- PSMA specific lesions in radiographic image (PSMA; imaged at 1 hour and 3 hours post administration): detected in the lymph nodes and bone, in addition to the prostate tissue itself
- imaging agent visible in bladder (PSMA; visible at hour 1): cleared by the 3-hour scan

Compound: ^177Lu-complex of (21S,25S)-8,15,23-trioxo-1-(4-((1,4,7,10-tetrakis(carboxymethyl)-1,4,7,10-tetraazacyclododecan-2-yl)methyl)phenylamino)-1 thioxo-2,7,16,22,24-pentaazaheptacosane-21,25,27-tricarboxylic acid [complex (C), reference compound]
- concentration in kidneys compared with tumor (LNCaP cell xenografts): greater in kidneys than in tumor
- concentration in LNCap tumor (LNCaP cell xenografts): decreases
- concentration in kidneys and tumor compared with other tissues (LNCaP cell xenografts; [3]): concentrate in kidneys and tumor to a greater extent than other tissues

Further lines, with some results ahead:

- intracellular concentration in LNCaP tumor cells (LNCaP cell xenografts; extended study, 1 week post administration): no appreciable change
- intrarenal concentration (LNCaP cell xenografts; extended study, 1 week post administration compared with within eight hours): significantly lower
- intratumoral concentration (LNCaP cell xenografts; [1]): decrease
- concentration in kidney (LNCaP cell xenografts; [2]): decreases
- concentration in tumor (LNCaP cell xenografts; [2]): no observable change
- concentration in kidneys and tumor as a function of time (LNCaP cell xenografts; extended study, first eight hours post administration): gradual increase
Compound: CN(C)c1nc(Nc2ccc(CC3CN(CC(=O)O)CCN(CC(=O)O)CCN(CC(=O)O)CCN3CC(=O)O)cc2)nc(N2CCN(CCCCCCCCCCC(=O)NCCCC[C@H](NC(=O)N[C@@H](CCC(=O)O)C(=O)O)C(=O)O)CC2)n1 (stereo partly drawn) [complex (D), ^177Lu-complex of (2S)-2-(3-((1S)-1-carboxy-5-(11-(4-(4-(dimethylamino)-6-((4-((1,4,7,10-tetrakis(carboxymethyl)-1,4,7,10-tetraazacyclododecan-2-yl)methyl)phenyl)amino)-1,3,5-triazin-2-yl)piperazin-1-yl)undecanamido)pentyl)ureido)pentanedioic acid, metal not drawn]
- concentration in kidneys and tumor compared with other tissues (LNCaP cell xenografts; extended biodistribution study, shorter time intervals post administration): concentrates to a greater extent in kidneys and tumor than other tissues
- decrease in tumor concentration compared with decrease in intrarenal concentration (LNCaP cell xenografts; [1]): less compared to the decrease in the intrarenal concentration
- LNCaP tumor volumes compared with volume at the start of the study (LNCaP xenografts): decrease to values lower than the tumor volume at the start of the study
- tumor volumes compared with saline control group (LNCaP xenografts; measured twice weekly): significantly lower

- concentration in kidneys compared with tumor (LNCaP cell xenografts): greater in kidneys than in tumor
- concentration in LNCap tumor (LNCaP cell xenografts): remained unchanged
- clearance from the kidneys (LNCaP cell xenografts): rapidly cleared from the kidneys
Compound: O=C(O)CC[C@H](NC(=O)N[C@@H](CCCCNC(=O)CCCCCCCCCCN1CCN(c2nc(Nc3ccc(CC4CN(CC(=O)O)CCN(CC(=O)O)CCN(CC(=O)O)CCN4CC(=O)O)cc3)nc(N3CCCCC3)n2)CC1)C(=O)O)C(=O)O (stereo partly drawn) [complex (B), ^177Lu-complex of (2S)-2-(3-((1S)-1-carboxy-5-(11-(4-(4-(piperidin-1-yl)-6-((4-((1,4,7,10-tetrakis(carboxymethyl)-1,4,7,10-tetraazacyclododecan-2-yl)methyl)phenyl)amino)-1,3,5-triazin-2-yl)piperazin-1-yl)undecanamido)pentyl)ureido)pentanedioic acid, metal not drawn]
- concentration in kidneys and tumor compared with other tissues (LNCaP cell xenografts; [3]): concentrate in kidneys and tumor to a greater extent than other tissues

- concentration in kidneys compared with tumor (LNCaP cell xenografts): greater in kidneys than in tumor
- concentration in LNCap tumor (LNCaP cell xenografts): remained unchanged
- clearance from the kidneys (LNCaP cell xenografts): rapidly cleared from the kidneys
Compound: O=C(O)CCOCCOCCNc1nc(Nc2ccc(CC3CN(CC(=O)O)CCN(CC(=O)O)CCN(CC(=O)O)CCN3CC(=O)O)cc2)nc(N2CCN(CCCCCCCCCCC(=O)NCCCC[C@H](NC(=O)N[C@@H](CCC(=O)O)C(=O)O)C(=O)O)CC2)n1 (stereo partly drawn) [complex (A), ^177Lu-complex of (2S)-2-(3-(1-carboxy-5-(11-(4-(4-((2-(2-(2-carboxyethoxy)ethoxy)ethyl)amino)-6-((4-((1,4,7,10-tetrakis(carboxymethyl)-1,4,7,10-tetraazacyclododecan-2-yl)methyl)phenyl)amino)-1,3,5-triazin-2-yl)piperazin-1-yl)undecanamido)pentyl)ureido)pentanedioic acid, metal not drawn]
- concentration in kidneys and tumor compared with other tissues (LNCaP cell xenografts; [3]): concentrate in kidneys and tumor to a greater extent than other tissues
